According to patent publication US11419826B2, “Surface-modified mesoporous silica nanoparticle for blood-brain barrier penetration,tumor targeting and cancer metastasis treatment, methods of production and uses thereof” (NANO TARGETING & THERAPY BIOPHARMA INC., priority 2019, dated 2022):

What was measured:
U87-LUC glioma cells = assay: U87-LUC orthotopic glioma xenograft mouse model; format: in vivo; conditions: Dox 10 mg/kg i.v. every 4 days for 3 times
Procedure: U87-LUC glioma cells were cultured at 37° C. in a humidified 5% CO2 atmosphere in minimum essential median (MEM) supplemented with 10% fetal bovine serum and 1% penicillin/streptomycin (Invitrogen). Cells were harvested by trypsinization, washed once with phosphate-buffered saline (PBS), and re-suspended (1×10^5 cell/μL) in MEM for subsequent implantation into the striatum of mouse brains. Pathogen-free male NU/NU mice (5 to 7 weeks old) were purchased from BioLASCO (Taiwan). Mice were housed and maintained in a controlled environment and all procedures were performed in accordance with the experimental animal care guidelines of the Animal Committee of Chang Gung University. To implant U87-LUC tumor cells, animals were anesthetized with 2% isoflurane gas and immobilized on a stereotactic frame. […] The growth of the brain tumor was monitored by IVIS and MRI.
Dox is a well-known anti-cancer drug approved for treatment of multiple cancers. […] To evaluate the efficacy of Dox@MSN-PEG+TA anti-brain tumor in vivo, the U87-LUC brain cells were implanted orthotopically into nude mice to serve as the U87-LUC xenograft mouse model; U87-LUC cells can express luciferase for quantification of tumor cells in vivo. […] The distribution of MSN-PEG+TA and Dox@MSN-PEG+TA in brain tissue and tumor were assessed from the tumor sections from nanoparticle treated mice. […]

[1] = Pharmacokinetics and quantification of Dox accumulation in plasma and brain; conditions: single i.v. dose, Dox 7.5 mg/kg; after 15 minutes
Procedure: Healthy balb/c mice were single dose intravenously injected with Dox or Dox@NTT0_18 at 7.5 mg/kg. To determine the Dox concentration in plasma and brain, blood samples were taken at 15, 30, 60, 180, 360 and 1440 minutes after injection, and after the blood samples were taken, each animal was sacrificed and perfused with PBS to obtain the brain. Dox was extracted from the samples (plasma and brain respectively) for the determination of dox concentration with a spectrophotometer.
Mice received a single dose of Dox or Dox@NTT0_18 (MSN-PEG+TA-loaded Dox) through intravenous injection (all at Dox dose 7.5 mg/kg). To determine the Dox concentration in plasma and brain, blood samples were taken at 15, 30, 60, 180, 360 and 1440 minutes after injection and animals were sacrificed and perfused with PBS at each time point. Dox was extracted from plasma and brain and the Dox concentration was measured using a spectrophotometer. The concentration versus time curves of Dox in plasma with and without MSN-PEG+TA encapsulated was also established.

COc1cccc2c1C(=O)c1c(O)c3c(c(O)c1C2=O)C[C@@](O)(C(=O)CO)C[C@@H]3O[C@H]1C[C@H](N)[C@H](O)[C@H](C)O1 [Dox, doxorubicin]
toxicity / body weight of treated mice (U87-LUC glioma cells): causes death of the host
tumor size (U87-LUC glioma cells; during the treatment period): shrunk during the treatment period
Dox concentration in plasma [1]: lower than 0.2 μg/mL
